According to ChEMBL document CHEMBL5724806, “Unraveling interindividual differences and functional consequences of gut microbial metabolism of immunosuppressants” (2024):

Key:
Type in all cases: ADME
[1] = The drug is tested on Akkermansia muciniphila strain: DSM22959 for biotransformation under anaerobic condition. The drug concentrations were measured over 6 timepoints collected between 0 and 12 hours of incubation by liquid-chromatography-coupled mass spectrometry (LC–MS); design: dose 5 uM, timepoint 0, 1.5, 3, 6, 9, 12 hours; conditions: 5 µM
[2] = The drug is tested on Clostridium ramosum strain: DSM1402 for biotransformation under anaerobic condition. The drug concentrations were measured over 6 timepoints collected between 0 and 12 hours of incubation by liquid-chromatography-coupled mass spectrometry (LC–MS); design: dose 5 uM, timepoint 0, 1.5, 3, 6, 9, 12 hours; conditions: thomasclavelia ramosa, 5 µM
[3] = The drug is tested on the gut metagenome community of P-01 with ENA study accession number: PRJEB31790 for biotransformation under anaerobic condition. The drug concentrations were measured over 7 timepoints collected between 0 and 12 hours of incubation by liquid-chromatography-coupled mass spectrometry (LC–MS); design: dose 5 uM, timepoint 0, 0.75, 1.5, 3, 6, 9, 12 hours; conditions: 5 µM
[4] = The drug is tested on Capnocytophaga ochracea strain: DSM7271 for biotransformation under microaerobic condition. The drug concentrations were measured over 6 timepoints collected between 0 and 12 hours of incubation by liquid-chromatography-coupled mass spectrometry (LC–MS); design: dose 5 uM, timepoint 0, 1.5, 3, 6, 9, 12 hours; conditions: 5 µM
[5] = The drug is tested on Actinomyces naeslundi strain: DSM43013 for biotransformation under anaerobic condition. The drug concentrations were measured over 6 timepoints collected between 0 and 12 hours of incubation by liquid-chromatography-coupled mass spectrometry (LC–MS); design: dose 5 uM, timepoint 0, 1.5, 3, 6, 9, 12 hours; conditions: actinomyces naeslundii, 5 µM
[6] = The drug is tested on Gemella morbillorum strain: DSM20572 for biotransformation under anaerobic condition. The drug concentrations were measured over 6 timepoints collected between 0 and 12 hours of incubation by liquid-chromatography-coupled mass spectrometry (LC–MS); design: dose 5 uM, timepoint 0, 1.5, 3, 6, 9, 12 hours; conditions: 5 µM
[7] = The drug is tested on the gut metagenome community of A-04 with ENA study accession number: PRJEB31790 for biotransformation under anaerobic condition. The drug concentrations were measured over 7 timepoints collected between 0 and 12 hours of incubation by liquid-chromatography-coupled mass spectrometry (LC–MS); design: dose 5 uM, timepoint 0, 0.75, 1.5, 3, 6, 9, 12 hours; conditions: 5 µM
[8] = The drug is tested on the gut metagenome community of A-10 with ENA study accession number: PRJEB31790 for biotransformation under microaerobic condition. The drug concentrations were measured over 7 timepoints collected between 0 and 12 hours of incubation by liquid-chromatography-coupled mass spectrometry (LC–MS); design: dose 5 uM, timepoint 0, 0.75, 1.5, 3, 6, 9, 12 hours; conditions: 5 µM
[9] = The drug is tested on the gut metagenome community of A-01 with ENA study accession number: PRJEB31790 for biotransformation under microaerobic condition. The drug concentrations were measured over 7 timepoints collected between 0 and 12 hours of incubation by liquid-chromatography-coupled mass spectrometry (LC–MS); design: dose 5 uM, timepoint 0, 0.75, 1.5, 3, 6, 9, 12 hours; conditions: 5 µM
[10] = The drug is tested on the gut metagenome community of A-07 with ENA study accession number: PRJEB31790 for biotransformation under microaerobic condition. The drug concentrations were measured over 7 timepoints collected between 0 and 12 hours of incubation by liquid-chromatography-coupled mass spectrometry (LC–MS); design: dose 5 uM, timepoint 0, 0.75, 1.5, 3, 6, 9, 12 hours; conditions: 5 µM
[11] = The drug is tested on Bacteroides xylanisolvens strain: HM 722 for biotransformation under anaerobic condition. The drug concentrations were measured over 6 timepoints collected between 0 and 12 hours of incubation by liquid-chromatography-coupled mass spectrometry (LC–MS); design: dose 5 uM, timepoint 0, 1.5, 3, 6, 9, 12 hours; conditions: 5 µM
[12] = The drug is tested on Gemella haemolysans strain: DSM107751 for biotransformation under microaerobic condition. The drug concentrations were measured over 6 timepoints collected between 0 and 12 hours of incubation by liquid-chromatography-coupled mass spectrometry (LC–MS); design: dose 5 uM, timepoint 0, 1.5, 3, 6, 9, 12 hours; conditions: 5 µM
[13] = The drug is tested on Bacteroides stercoris strain: HM 1036 for biotransformation under anaerobic condition. The drug concentrations were measured over 6 timepoints collected between 0 and 12 hours of incubation by liquid-chromatography-coupled mass spectrometry (LC–MS); design: dose 5 uM, timepoint 0, 1.5, 3, 6, 9, 12 hours; conditions: 5 µM
[14] = The drug is tested on Parabacteroides merdae strain: DSM19495 for biotransformation under anaerobic condition. The drug concentrations were measured over 6 timepoints collected between 0 and 12 hours of incubation by liquid-chromatography-coupled mass spectrometry (LC–MS); design: dose 5 uM, timepoint 0, 1.5, 3, 6, 9, 12 hours; conditions: 5 µM
[15] = The drug is tested on the gut metagenome community of P-04 with ENA study accession number: PRJEB31790 for biotransformation under anaerobic condition. The drug concentrations were measured over 7 timepoints collected between 0 and 12 hours of incubation by liquid-chromatography-coupled mass spectrometry (LC–MS); design: dose 5 uM, timepoint 0, 0.75, 1.5, 3, 6, 9, 12 hours; conditions: 5 µM
[16] = The drug is tested on the gut metagenome community of A-04 with ENA study accession number: PRJEB31790 for biotransformation under microaerobic condition. The drug concentrations were measured over 7 timepoints collected between 0 and 12 hours of incubation by liquid-chromatography-coupled mass spectrometry (LC–MS); design: dose 5 uM, timepoint 0, 0.75, 1.5, 3, 6, 9, 12 hours; conditions: 5 µM
[17] = The drug is tested on the gut metagenome community of A-09 with ENA study accession number: PRJEB31790 for biotransformation under microaerobic condition. The drug concentrations were measured over 7 timepoints collected between 0 and 12 hours of incubation by liquid-chromatography-coupled mass spectrometry (LC–MS); design: dose 5 uM, timepoint 0, 0.75, 1.5, 3, 6, 9, 12 hours; conditions: 5 µM
[18] = The drug is tested on the gut metagenome community of A-07 with ENA study accession number: PRJEB31790 for biotransformation under anaerobic condition. The drug concentrations were measured over 7 timepoints collected between 0 and 12 hours of incubation by liquid-chromatography-coupled mass spectrometry (LC–MS); design: dose 5 uM, timepoint 0, 0.75, 1.5, 3, 6, 9, 12 hours; conditions: 5 µM
[19] = The drug is tested on Prevotella copri strain: DSM18205 for biotransformation under anaerobic condition. The drug concentrations were measured over 6 timepoints collected between 0 and 12 hours of incubation by liquid-chromatography-coupled mass spectrometry (LC–MS); design: dose 5 uM, timepoint 0, 1.5, 3, 6, 9, 12 hours; conditions: segatella copri, 5 µM
[20] = The drug is tested on Bacteroides thetaiotaomicron strain: DSM2079 for biotransformation under anaerobic condition. The drug concentrations were measured over 6 timepoints collected between 0 and 12 hours of incubation by liquid-chromatography-coupled mass spectrometry (LC–MS); design: dose 5 uM, timepoint 0, 1.5, 3, 6, 9, 12 hours; conditions: 5 µM
[21] = The drug is tested on the gut metagenome community of A-02 with ENA study accession number: PRJEB31790 for biotransformation under anaerobic condition. The drug concentrations were measured over 7 timepoints collected between 0 and 12 hours of incubation by liquid-chromatography-coupled mass spectrometry (LC–MS); design: dose 5 uM, timepoint 0, 0.75, 1.5, 3, 6, 9, 12 hours; conditions: 5 µM
[22] = The drug is tested on Bacteroides caccae strain: DSM19024 for biotransformation under anaerobic condition. The drug concentrations were measured over 6 timepoints collected between 0 and 12 hours of incubation by liquid-chromatography-coupled mass spectrometry (LC–MS); design: dose 5 uM, timepoint 0, 1.5, 3, 6, 9, 12 hours; conditions: 5 µM
[23] = The drug is tested on Lactobacillus fermentum strain: DSM20052 for biotransformation under anaerobic condition. The drug concentrations were measured over 6 timepoints collected between 0 and 12 hours of incubation by liquid-chromatography-coupled mass spectrometry (LC–MS); design: dose 5 uM, timepoint 0, 1.5, 3, 6, 9, 12 hours; conditions: limosilactobacillus fermentum, 5 µM
[24] = The drug is tested on the gut metagenome community of A-05 with ENA study accession number: PRJEB31790 for biotransformation under anaerobic condition. The drug concentrations were measured over 7 timepoints collected between 0 and 12 hours of incubation by liquid-chromatography-coupled mass spectrometry (LC–MS); design: dose 5 uM, timepoint 0, 0.75, 1.5, 3, 6, 9, 12 hours; conditions: 5 µM
[25] = The drug is tested on Dorea formicigenerans strain: DSM3992 for biotransformation under anaerobic condition. The drug concentrations were measured over 6 timepoints collected between 0 and 12 hours of incubation by liquid-chromatography-coupled mass spectrometry (LC–MS); design: dose 5 uM, timepoint 0, 1.5, 3, 6, 9, 12 hours; conditions: 5 µM

Row | Structure (SMILES) | Bacterial Biotransformation [1] | Bacterial Biotransformation [3] | Bacterial Biotransformation [4] | Bacterial Biotransformation [5] | Bacterial Biotransformation [6] | Bacterial Biotransformation [7] | Bacterial Biotransformation [8] | Bacterial Biotransformation [9] | Bacterial Biotransformation [10] | Bacterial Biotransformation [11] | Bacterial Biotransformation [12] | Bacterial Biotransformation [13] | Bacterial Biotransformation [14] | Bacterial Biotransformation [15] | Bacterial Biotransformation [16] | Bacterial Biotransformation [17] | Bacterial Biotransformation [18] | Bacterial Biotransformation [19] | Bacterial Biotransformation [20] | Bacterial Biotransformation [21] | also measured
1 | CCOc1nc2cccc(C(=O)O)c2n1Cc1ccc(-c2ccccc2-c2nnn[nH]2)cc1 | Compound NOT metabolized | Compound NOT metabolized | Compound NOT metabolized | Compound NOT metabolized | Compound NOT metabolized | Compound NOT metabolized | Compound NOT metabolized | Compound NOT metabolized | Compound NOT metabolized | Compound NOT metabolized | Compound NOT metabolized | Compound NOT metabolized | Compound NOT metabolized | Compound NOT metabolized | Compound NOT metabolized | Compound NOT metabolized | Compound NOT metabolized | Compound NOT metabolized | Compound NOT metabolized | Compound NOT metabolized | Bacterial Biotransformation [2]: Compound NOT metabolized; Bacterial Biotransformation [22]: Compound NOT metabolized; Bacterial Biotransformation [23]: Compound metabolized; Bacterial Biotransformation [24]: Compound NOT metabolized; Bacterial Biotransformation [25]: Compound NOT metabolized
2 | C[C@@H](NCCCc1cccc(C(F)(F)F)c1)c1cccc2ccccc12 | Compound NOT metabolized | Compound NOT metabolized | Compound NOT metabolized | Compound NOT metabolized | Compound NOT metabolized | Compound NOT metabolized | Compound NOT metabolized | Compound NOT metabolized | Compound NOT metabolized | Compound NOT metabolized | Compound NOT metabolized | Compound NOT metabolized | Compound NOT metabolized | Compound NOT metabolized | Compound NOT metabolized | Compound NOT metabolized | Compound NOT metabolized | Compound NOT metabolized | Compound NOT metabolized | Compound NOT metabolized | Bacterial Biotransformation [2]: Compound NOT metabolized; Bacterial Biotransformation [22]: Compound NOT metabolized; Bacterial Biotransformation [23]: Compound NOT metabolized; Bacterial Biotransformation [24]: Compound NOT metabolized; Bacterial Biotransformation [25]: Compound NOT metabolized
3 | CCOC(=O)C1=C(COCCN)NC(C)=C(C(=O)OC)C1c1ccccc1Cl (centres undefined) [AMLODIPINE] | Compound NOT metabolized | Compound NOT metabolized | Compound NOT metabolized | Compound NOT metabolized | Compound NOT metabolized | Compound NOT metabolized | Compound NOT metabolized | Compound NOT metabolized | Compound NOT metabolized | Compound NOT metabolized | Compound NOT metabolized | Compound NOT metabolized | Compound NOT metabolized | Compound NOT metabolized | Compound NOT metabolized | Compound NOT metabolized | Compound NOT metabolized | Compound NOT metabolized | Compound NOT metabolized | Compound metabolized | Bacterial Biotransformation [22]: Compound NOT metabolized; Bacterial Biotransformation [23]: Compound NOT metabolized; Bacterial Biotransformation [24]: Compound NOT metabolized; Bacterial Biotransformation [25]: Compound NOT metabolized
